The test system of assay [1] is mixed inoculum of Staphylococcus aureus ATCC 6538, Pseudomonas aeruginosa ATCC 9027 and Escherichia coli ATCC 8739. The assay can be described thus: Challenge test, bacteria, in unpreserved shampoo (Shampoo ULD). Conditions: room temperature, Example 1 at 1% or its components at 0.06% sorbic acid, 0.2% benzyl alcohol, 0.37% 1,2-propanediol, 0.37% 1,4-butanediol.
Description: A mixed inoculum containing approximately equal amounts of Staphylococcus aureus ATCC 6538, Pseudomonas aeruginosa ATCC 9027 and Escherichia coli ATCC 8739 was prepared according to the following procedure:
One colony of each bacteria strain was transferred from a stock culture to a tryptic soy agar plate which was incubated for 18-24 h at 37±2° C. Subsequently, some colonies of each of the thus-obtained cultures were transferred to a tryptic soy broth tube which was again incubated for 18-24 h at 37±2° C. to obtain a bacteria subculture, 200 μL of which were added to 2 mL of NaCl-peptone solution in a sterile plastic tube to obtain an inoculum containing approximately 10^9 cfu/mL of the respective bacterium. Finally, the mixed inoculum was prepared by mixing equal volumes of each inoculum.
For comparison purposes, additional 20 g samples were tested using equivalent amounts of each of the components of the preservative composition either alone or in two- or three-component combinations. Each sample was then inoculated with 200 μL of the mixed inoculum obtained in step A) and shaken vigorously to obtain a homogeneous contamination. The samples were then stored at room temperature and the bacteria count was determined in intervals of 7 days by taking 200 μL samples, mixing each of them with 1.8 mL of inactivation medium, and homogeneously plating 100 μL of the resulting mixtures on the surface of agar plates which were incubated for 2-3 days at 37±2° C. After the incubation period the colonies formed on the agar plates were counted and the results translated into cfu/mL. If necessary, serial dilutions in NaCl-peptone were prepared to cope with high bacteria counts.
The subject of assay [2] is mixed inoculum of Candida albicans ATCC 10231 and Aspergillus niger ATCC 16404. The assay is described as follows: Challenge test, fungi, in unpreserved shampoo pH 5.5 (Table 2). Conditions: shampoo of Table 2, pH 5.5, Example 1 at 1% or its components at 0.06% sorbic acid, 0.2% benzyl alcohol, 0.37% 1,2-propanediol, 0.37% 1,4-butanediol.

SMILES strings stand for the structures.

On to `C/C=C/C=C/C(=O)O` [Sorbic Acid], for which the “Mixed Bacteria Germ Count, 7 days” value in assay [1] (7 days) was >10^4 cfu/g. Besides, the “Mixed Bacteria Germ Count, 14 days” value in assay [1] (14 days) is listed as >10^3 cfu/g. Besides, the “Mixed Bacteria Germ Count, 21 days” value in assay [1] (21 days) is 6.7 × 10^2 cfu/g. Moreover, in assay [1] (28 days), the “Mixed Bacteria Germ Count, 28 days” value is reported as 2.0 × 10^1 cfu/g. For the same compound, the “Mixed Fungi Germ Count, 7 days” value in assay [2] (7 days) is given as >10^5 cfu/g. The “Mixed Fungi Germ Count, 14 days” value in assay [2] (14 days) is listed as >10^4 cfu/g. In assay [2] (21 days), the “Mixed Fungi Germ Count, 21 days” value was >10^5 cfu/g. Also, in assay [2] (28 days), the “Mixed Fungi Germ Count, 28 days” value is given as >10^3 cfu/g.
